Columns and labels:
windgrass [1] = assay: Test D preemergence; assay type: in vivo, Apera spica-venti; conditions: Preemergence, scale 0 to 100
In short: (§1)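 Visual 0–100 control ratings at 14–21 days in a controlled growth environment. Application preemergence onto silt loam or postemergence onto 2–18 cm seedlings, using a non-phytotoxic solvent formulation with surfactant.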

buckwheat, wild [2] = assay: Test D preemergence; assay type: in vivo, Polygonum convolvulus; conditions: Preemergence, scale 0 to 100
In short: as §1

field poppy = assay: Test D postemergence; assay type: in vivo, Papaver rhoeas; conditions: scale 0 to 100
In short: as §1

deadnettle [3] = assay: Test D preemergence; assay type: in vivo, Lamium amplexicaule; conditions: Preemergence, scale 0 to 100
In short: as §1

windgrass [4] = assay: Test D postemergence; assay type: in vivo, Apera spica-venti; conditions: scale 0 to 100
Description: (§2) Seeds of plant species selected from bluegrass (annual bluegrass, Poa annua), blackgrass (Alopecurus myosuroides), canarygrass (littleseed canarygrass, Phalaris minor), chickweed (common chickweed, Stellaria media), galium (catchweed bedstraw, Galium aparine), bromegrass, downy (downy bromegrass, Bromus tectorum), field poppy (Papaver rhoeas), field violet (Viola arvensis), foxtail, green (green foxtail, Setaria viridis), deadnettle (henbit deadnettle, Lamium amplexicaule), ryegrass, Italian (Italian ryegrass, Lolium multiflorum), kochia (Kochia scoparia), lambsquarters (Chenopodium album), oilseed rape (Brassica napus), pigweed (redroot pigweed, Amaranthus retroflexus), chamomile (scentless chamomile, Matricaria inodora), speedwell (bird's-eye speedwell, Veronica persica), barley, spring (spring barley, Hordeum vulgare), wheat, spring (spring wheat, Triticum aestivum), buckwheat, wild (wild buckwheat, Polygonum convolvulus), mustard, wild (wild mustard, Sinapis arvensis), oat, wild (wild oat, Avena fatua), radish, wild (wild radish, Raphanus raphanistrum), windgrass (Apera spica-venti), Russian thistle (Salsola kali), barley, winter (winter barley, Hordeum vulgare), and wheat, winter (winter wheat, Triticum aestivum) were planted into a silt loam soil and treated preemergence with test chemicals formulated in a non-phytotoxic solvent mixture which included a surfactant.
(§3) At the same time, these species were planted in pots containing Redi-Earth® planting medium (Scotts Company, 14111 Scottslawn Road, Marysville, Ohio 43041) comprising spaghnum peat moss, vermiculite, wetting agent and starter nutrients and treated with postemergence applications of the test chemicals formulated in the same manner. Plants ranged in height from 2 to 18 cm (1- to 4-leaf stage). Treated plants and controls were maintained in a controlled growth environment for 14 to 21 days after which time all species were compared to controls and visually evaluated. Plant response ratings, summarized in Table D, are based on a scale of 0 to 100 where 0 is no effect and 100 is complete control. A dash (-) response means no test result.

pigweed = assay: Test D postemergence; assay type: in vivo, Amaranthus retroflexus; conditions: scale 0 to 100
Description: as §2, §3

chickweed = assay: Test D preemergence; assay type: in vivo, Stellaria media; conditions: Preemergence, scale 0 to 100
Description: as §2, §3

radish, wild = assay: Test D postemergence; assay type: in vivo, Raphanus raphanistrum; conditions: scale 0 to 100
Description: as §2, §3

buckwheat, wild [5] = assay: Test D postemergence; assay type: in vivo, Polygonum convolvulus; conditions: scale 0 to 100
In short: as §1

deadnettle [6] = assay: Test D postemergence; assay type: in vivo, Lamium amplexicaule; conditions: scale 0 to 100
In short: as §1

bromegrass, downy = assay: Test D postemergence; assay type: in vivo, Bromus tectorum; conditions: scale 0 to 100
In short: as §1

mustard, wild = assay: Test D postemergence; assay type: in vivo, Sinapis arvensis; conditions: scale 0 to 100
In short: as §1

morningglory = assay: Test F preemergence; assay type: in vivo, Ipomoea coccinea
Description: Seeds of plant species selected from corn (Zea mays), soybean (Glycine max), velvetleaf (Abutilon theophrasti), lambsquarters (Chenopodium album), wild poinsettia (Euphorbia heterophylla), pigweed, palmer (palmer pigweed, Amaranthus palmeri), common waterhemp (Amaranthus rudis), surinam grass (Brachiaria decumbens), large crabgrass (Digitaria sanguinalis), crabgrass, Brazil (Brazilian crabgrass, Digitaria horizontalis), fall panicum (Panicum dichotomiflorum), giant foxtail (Setaria faberii), green foxtail (Setaria viridis), goosegrass (Eleusine indica), johnsongrass (Sorghum halepense), common ragweed (Ambrosia elation), barnyardgrass (Echinochloa crus-galli), southern sandbur (Cenchrus echinatus), arrowleaf sida (Sida rhombifolia), Italian ryegrass (Lolium multiflorum), dayflower, VA (Virginia (VA) dayflower, Commelina virginica), field bindweed (Convolvulus arvensis), cocklebur (common cocklebur, Xanthium strumarium), morningglory (Ipomoea coccinea), nightshade (eastern black nightshade, Solanum ptycanthum), kochia (Kochia scoparia), yellow nutsedge (Cyperus esculentus), and hairy beggarticks (Bidens pilosa), were planted into a silt loam soil and treated preemergence with test chemicals formulated in a non-phytotoxic solvent mixture which included a surfactant.
At the same time, plants from these crop and weed species and also horseweed (Canada horseweed, Conyza canadensis), smartweed (ladysthumb smartweed, Polygonum persicaria), waterhemp_RES1, (ALS & Triazine resistant common waterhemp, Amaranthus rudis), and waterhemp_RES2, (ALS & HPPD resistant common waterhemp, Amaranthus rudis) were treated with postemergence applications of test chemicals formulated in the same manner. Plants ranged in height from 2 to 18 cm for postemergence treatments (1- to 4-leaf stage). Treated plants and controls were maintained in a greenhouse for 14 to 21 days, after which time all species were compared to controls and visually evaluated. Plant response ratings, summarized in Table F, are based on a scale of 0 to 100 where 0 is no effect and 100 is complete control. A dash (-) response means no test result.

CCc1cc(C(=O)NCC(F)(F)F)nn1Cc1ccnc(SC(F)(F)F)c1 [Compound 214]
Plant response rating, Windgrass (windgrass [1]; 62 g ai/ha): 85
Plant response rating, Windgrass (windgrass [1]; 125 g ai/ha): 90
Plant response rating, Windgrass (windgrass [1]; 250 g ai/ha): 100
Plant response rating, Buckwheat, Wild (buckwheat, wild [2]; 31 g ai/ha): 35
Plant response rating, Buckwheat, Wild (buckwheat, wild [2]; 62 g ai/ha): 95
Plant response rating, Buckwheat, Wild (buckwheat, wild [2]; 125 g ai/ha): 90
Plant response rating, Buckwheat, Wild (buckwheat, wild [2]; 250 g ai/ha): 100
Field Poppy plant response rating (field poppy; Postemergence, 31 g ai/ha): 70
Field Poppy plant response rating (field poppy; Postemergence, 125 g ai/ha): 70
Field Poppy plant response rating (field poppy; Postemergence, 250 g ai/ha): 80
Field Poppy plant response rating (field poppy; postemergence, 62 g ai/ha): 70
Plant response rating, Deadnettle (deadnettle [3]; 31 g ai/ha): 90
Plant response rating, Deadnettle (deadnettle [3]; 62 g ai/ha): 100
Plant response rating, Deadnettle (deadnettle [3]; 125 g ai/ha): 100
Plant response rating, Deadnettle (deadnettle [3]; 250 g ai/ha): 100
Windgrass plant response rating (windgrass [4]; Postemergence, 31 g ai/ha): 20
Windgrass plant response rating (windgrass [4]; Postemergence, 125 g ai/ha): 30
Windgrass plant response rating (windgrass [4]; Postemergence, 250 g ai/ha): 40
Windgrass plant response rating (windgrass [4]; postemergence, 62 g ai/ha): 20
Pigweed plant response rating (pigweed; Postemergence, 31 g ai/ha): 90
Pigweed plant response rating (pigweed; Postemergence, 125 g ai/ha): 90
Pigweed plant response rating (pigweed; Postemergence, 250 g ai/ha): 95
Pigweed plant response rating (pigweed; postemergence, 62 g ai/ha): 90
Plant response rating, Chickweed (chickweed; 31 g ai/ha): 90
Plant response rating, Chickweed (chickweed; 62 g ai/ha): 75
Plant response rating, Chickweed (chickweed; 125 g ai/ha): 100
Plant response rating, Chickweed (chickweed; 250 g ai/ha): 100
Radish, Wild plant response rating (radish, wild; Postemergence, 31 g ai/ha): 65
Radish, Wild plant response rating (radish, wild; Postemergence, 125 g ai/ha): 70
Radish, Wild plant response rating (radish, wild; Postemergence, 250 g ai/ha): 100
Radish, Wild plant response rating (radish, wild; postemergence, 62 g ai/ha): 65
Buckwheat, Wild plant response rating (buckwheat, wild [5]; Postemergence, 31 g ai/ha): 70
Buckwheat, Wild plant response rating (buckwheat, wild [5]; Postemergence, 125 g ai/ha): 70
Buckwheat, Wild plant response rating (buckwheat, wild [5]; Postemergence, 250 g ai/ha): 80
Buckwheat, Wild plant response rating (buckwheat, wild [5]; postemergence, 62 g ai/ha): 70
Deadnettle plant response rating (deadnettle [6]; Postemergence, 31 g ai/ha): 50
Deadnettle plant response rating (deadnettle [6]; Postemergence, 125 g ai/ha): 60
Deadnettle plant response rating (deadnettle [6]; Postemergence, 250 g ai/ha): 70
Deadnettle plant response rating (deadnettle [6]; postemergence, 62 g ai/ha): 50
Bromegrass, Downy plant response rating (bromegrass, downy; Postemergence, 31 g ai/ha): 15
Bromegrass, Downy plant response rating (bromegrass, downy; Postemergence, 125 g ai/ha): 20
Bromegrass, Downy plant response rating (bromegrass, downy; Postemergence, 250 g ai/ha): 20
Bromegrass, Downy plant response rating (bromegrass, downy; postemergence, 62 g ai/ha): 15
Mustard, Wild plant response rating (mustard, wild; Postemergence, 31 g ai/ha): 70
Mustard, Wild plant response rating (mustard, wild; Postemergence, 125 g ai/ha): 100
Mustard, Wild plant response rating (mustard, wild; Postemergence, 250 g ai/ha): 100
Mustard, Wild plant response rating (mustard, wild; postemergence, 62 g ai/ha): 70

CCc1cc(-c2ccc(C(F)(F)F)cc2)nn1Cc1ccnc(C(F)(F)F)c1 [Compound 110]
Plant response rating, Morningglory (morningglory; Preemergence, 31 g ai/ha, scale 0 to 100): 10
Plant response rating, Morningglory (morningglory; Preemergence, 62 g ai/ha, scale 0 to 100): 10
Plant response rating, Morningglory (morningglory; Preemergence, 125 g ai/ha, scale 0 to 100): 60
Plant response rating, Morningglory (morningglory; preemergence, 8 g ai/ha, scale 0 to 100, 100 is complete control): 0
Plant response rating, Morningglory (morningglory; preemergence, 16 g ai/ha, scale 0 to 100, 100 is complete control): 20

From US20150105252A1, “SUBSTITUTED PYRAZOLES AS HERBICIDES” (E I DU PONT DE NEMOURS AND COMPANY, priority 2013, published 2015)
